Drawing on patent publication US20230117470A1, “SUBSTITUTED PYRAZOLE COMPOUNDS AS TOLL RECEPTOR INHIBITORS” (BRISTOL-MYERS SQUIBB COMPANY, priority 2019, published 2023), this text covers IC50 for 16 compounds.

What all share (format): cell-based
In one assay the target is T1, human TLR9 (Homo sapiens, UniProt Q9NR96).
T1 construct: host or cells: HEK-Blue cells
T1 sequence (Q9NR96 26-1032): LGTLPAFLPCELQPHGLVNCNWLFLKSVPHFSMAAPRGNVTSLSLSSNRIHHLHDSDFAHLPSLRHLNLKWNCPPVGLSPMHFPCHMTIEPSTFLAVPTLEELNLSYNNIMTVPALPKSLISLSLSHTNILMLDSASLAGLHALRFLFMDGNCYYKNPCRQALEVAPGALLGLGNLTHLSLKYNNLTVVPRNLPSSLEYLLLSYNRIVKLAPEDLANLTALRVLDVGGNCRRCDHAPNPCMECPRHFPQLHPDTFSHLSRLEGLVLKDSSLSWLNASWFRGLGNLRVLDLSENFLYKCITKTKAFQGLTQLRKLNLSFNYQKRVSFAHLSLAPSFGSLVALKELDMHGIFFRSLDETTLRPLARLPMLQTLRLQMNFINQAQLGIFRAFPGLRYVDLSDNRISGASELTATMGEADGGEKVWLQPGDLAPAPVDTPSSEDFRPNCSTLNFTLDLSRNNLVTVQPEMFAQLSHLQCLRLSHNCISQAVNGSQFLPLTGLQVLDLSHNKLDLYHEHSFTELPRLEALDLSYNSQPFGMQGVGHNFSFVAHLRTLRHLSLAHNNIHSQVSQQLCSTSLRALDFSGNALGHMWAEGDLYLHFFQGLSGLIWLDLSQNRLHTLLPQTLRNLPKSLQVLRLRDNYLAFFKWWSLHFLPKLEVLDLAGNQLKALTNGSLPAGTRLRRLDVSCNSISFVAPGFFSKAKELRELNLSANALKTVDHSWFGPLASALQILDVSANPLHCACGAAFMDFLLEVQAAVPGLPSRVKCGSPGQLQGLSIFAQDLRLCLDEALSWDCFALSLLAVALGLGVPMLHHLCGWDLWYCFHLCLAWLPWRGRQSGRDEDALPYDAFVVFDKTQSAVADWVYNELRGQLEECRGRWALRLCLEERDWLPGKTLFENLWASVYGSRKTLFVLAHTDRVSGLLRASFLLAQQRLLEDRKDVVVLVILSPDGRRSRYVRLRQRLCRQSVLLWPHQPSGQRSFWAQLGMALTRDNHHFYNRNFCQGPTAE
Put plainly: TLR9 inhibition reporter assay (HEK-Blue cells, SEAP reporter, ODN2006 stimulation). Conditions: HEK-Blue cells overexpressing human TLR9, SEAP reporter, ODN2006 5 nM. The procedure, abridged:
(§1)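 Cells were pre-treated 30 min at room temperature with compound (final 0.05 nM–50 μM), then stimulated with gardiquimod 7.5 μM (TLR7), R848 15.9 μM (TLR8) or ODN2006 5 nM (TLR9). SEAP was read after 22 h at 37° C; percent inhibition scaled between agonist+DMSO and known-inhibitor wells.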

A further assay concerns the target T2, human TLR8 (Homo sapiens, UniProt Q9NR97).
T2 construct: host or cells: HEK-Blue cells
T2 sequence (Q9NR97 27-1041): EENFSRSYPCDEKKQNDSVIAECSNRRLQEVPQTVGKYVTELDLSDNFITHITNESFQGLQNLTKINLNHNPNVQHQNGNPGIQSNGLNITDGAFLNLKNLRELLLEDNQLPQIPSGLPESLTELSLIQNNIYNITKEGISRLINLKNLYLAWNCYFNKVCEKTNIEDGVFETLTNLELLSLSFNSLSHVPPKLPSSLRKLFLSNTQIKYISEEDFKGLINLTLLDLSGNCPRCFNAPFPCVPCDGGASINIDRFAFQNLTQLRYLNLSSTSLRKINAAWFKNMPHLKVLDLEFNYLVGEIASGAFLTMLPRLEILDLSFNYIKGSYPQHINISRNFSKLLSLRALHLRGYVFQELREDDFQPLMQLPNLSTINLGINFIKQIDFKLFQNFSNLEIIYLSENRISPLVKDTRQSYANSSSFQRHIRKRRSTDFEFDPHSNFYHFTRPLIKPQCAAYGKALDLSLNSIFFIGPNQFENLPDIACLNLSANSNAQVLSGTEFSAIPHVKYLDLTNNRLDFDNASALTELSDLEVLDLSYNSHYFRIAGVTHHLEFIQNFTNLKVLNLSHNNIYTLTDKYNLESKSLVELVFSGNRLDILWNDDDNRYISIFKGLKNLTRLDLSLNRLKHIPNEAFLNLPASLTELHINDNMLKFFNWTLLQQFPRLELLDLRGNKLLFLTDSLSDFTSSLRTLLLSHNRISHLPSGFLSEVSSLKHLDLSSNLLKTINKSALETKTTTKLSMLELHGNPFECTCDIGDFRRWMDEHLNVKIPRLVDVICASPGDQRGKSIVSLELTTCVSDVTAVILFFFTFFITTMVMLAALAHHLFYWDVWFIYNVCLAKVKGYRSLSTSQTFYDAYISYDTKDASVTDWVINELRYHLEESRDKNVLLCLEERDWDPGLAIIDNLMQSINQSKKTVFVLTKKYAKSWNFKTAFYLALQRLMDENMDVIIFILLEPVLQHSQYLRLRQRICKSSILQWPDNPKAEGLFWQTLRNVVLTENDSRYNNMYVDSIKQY
Description: TLR8 inhibition reporter assay (HEK-Blue cells, SEAP reporter, R848 stimulation). Conditions: HEK-Blue cells overexpressing human TLR8, SEAP reporter, R848 15.9 μM. The procedure, abridged:
as §1
For orientation: A reporter such as luciferase makes a cellular process visible.

The target of another assay is T3, human TLR7 (Homo sapiens, UniProt Q9NYK1).
T3 construct: host or cells: HEK-Blue cells
T3 sequence (Q9NYK1 27-1049): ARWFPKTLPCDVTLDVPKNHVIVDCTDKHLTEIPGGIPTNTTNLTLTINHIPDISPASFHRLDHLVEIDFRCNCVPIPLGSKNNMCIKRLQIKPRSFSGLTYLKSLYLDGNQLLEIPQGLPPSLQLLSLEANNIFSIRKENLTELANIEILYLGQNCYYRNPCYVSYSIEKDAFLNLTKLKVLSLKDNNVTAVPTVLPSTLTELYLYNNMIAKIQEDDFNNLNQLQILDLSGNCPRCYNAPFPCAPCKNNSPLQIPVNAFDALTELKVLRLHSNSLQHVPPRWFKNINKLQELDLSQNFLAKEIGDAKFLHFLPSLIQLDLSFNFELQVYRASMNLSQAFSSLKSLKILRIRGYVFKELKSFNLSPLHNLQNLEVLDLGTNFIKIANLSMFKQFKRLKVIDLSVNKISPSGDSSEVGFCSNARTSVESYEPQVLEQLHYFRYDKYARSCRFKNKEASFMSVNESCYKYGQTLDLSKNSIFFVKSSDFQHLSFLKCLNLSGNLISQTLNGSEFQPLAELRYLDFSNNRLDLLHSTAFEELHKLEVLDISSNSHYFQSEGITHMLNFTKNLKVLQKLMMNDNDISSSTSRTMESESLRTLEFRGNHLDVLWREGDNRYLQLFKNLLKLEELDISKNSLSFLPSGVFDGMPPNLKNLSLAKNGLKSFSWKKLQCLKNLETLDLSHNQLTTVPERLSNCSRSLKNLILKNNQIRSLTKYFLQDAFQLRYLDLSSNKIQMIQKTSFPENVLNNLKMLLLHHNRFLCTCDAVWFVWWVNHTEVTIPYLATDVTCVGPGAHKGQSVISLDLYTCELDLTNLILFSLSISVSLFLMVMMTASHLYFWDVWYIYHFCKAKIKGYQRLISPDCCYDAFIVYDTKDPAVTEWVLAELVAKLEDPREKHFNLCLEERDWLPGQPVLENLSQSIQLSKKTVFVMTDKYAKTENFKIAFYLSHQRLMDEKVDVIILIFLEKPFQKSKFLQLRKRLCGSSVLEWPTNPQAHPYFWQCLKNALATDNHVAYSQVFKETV
Description: TLR7 inhibition reporter assay (HEK-Blue cells, SEAP reporter, gardiquimod stimulation). Conditions: HEK-Blue cells overexpressing human TLR7, SEAP reporter, gardiquimod 7.5 μM. The procedure, abridged:
as §1

As a reminder, the IC50 is the concentration that gives 50% inhibition. Higher therefore signals a need for much substance. Consider `CCN1CCc2nc(-c3n[nH]c(-c4cc(C)c5ncnn5c4)c3C(C)C)ncc2C1` [Example 249], for which the IC50 at human TLR9 was found to be 19800 nM; against human TLR8 it was 1.19 nM; on human TLR7, 6.34 nM.

Take `CCC(CC)N1CCC(c2cnc(-c3n[nH]c(-c4cc(OC)c5ncnn5c4)c3C(C)C)cn2)CC1` [Example 386]: the results for the half-maximal inhibitory concentration (IC50) against human TLR9, at human TLR8 and against human TLR7 were 9560 nM, 3.56 nM and 10.3 nM, respectively.

On to `Cc1cc(-c2[nH]nc(C(=O)NC3CCN(CCC(F)(F)F)CC3)c2C(C)C)cn2ncnc12` [Example 169], for which the results for the half-maximal inhibitory concentration (IC50) on human TLR9, against human TLR8 and at human TLR7 were 9810 nM, 17 nM and 4.17 nM, respectively.

Turning to `CCCN1CC(c2ccc(-c3n[nH]c(-c4cc(OC)c5ncnn5c4)c3C(C)C)cc2)C1` [Example 330], the values for the IC50 on human TLR9, at human TLR8 and on human TLR7 were 11400 nM, 1.5 nM and 8.34 nM, respectively.

In the case of `COc1ccc(-c2[nH]nc(C(=O)NC3CCN(C(C)C)CC3)c2C(C)C)cc1OC` [Example 34], the values for the IC50 against human TLR9, against human TLR8 and against human TLR7 were over 50000 nM, 4.94 nM and 4.44 nM, respectively.

As for `Cc1cc(-c2[nH]nc(-c3ccc(C4CCNCC4)nn3)c2C(C)C)cn2ncnc12` [Example 344], the figures for the IC50 against human TLR9, against human TLR8 and against human TLR7 were over 50000 nM, 12.7 nM and 39 nM, respectively.

On to `Cc1cc(-c2[nH]nc(C(=O)NC3CCN(C(C)C)CC3)c2C(C)C)cn(C)c1=O` [Example 39], for which the IC50 came to 3560 nM against human TLR9, 25.5 nM on human TLR8 and 8.31 nM against human TLR7.

For `Cc1cc(-c2[nH]nc(-c3ccc(C4CN(C(=O)CN(C)C)C4)cc3)c2C(C)C)cn2ncnc12` [Example 334, 2-(dimethylamino)-1-(3-(4-(4-isopropyl-5-(8-methyl-[1,2,4]triazolo[1,5-a]pyridin-6-yl)-1H-pyrazol-3-yl)phenyl)azetidin-1-yl)ethan-1-one], the IC50 against human TLR9 was determined as 4830 nM; on human TLR8, 3.19 nM; at human TLR7, 13.6 nM.

Consider `CCN1CCC(c2ccc(-c3n[nH]c(-c4cc(C)c5ncnn5c4)c3C(C)C)nc2)CC1` [Example 366], for which the IC50 on human TLR9 was 6260 nM; against human TLR8, over 3130 nM; against human TLR7, over 3130 nM.

Regarding `Cc1cc(-c2[nH]nc(C(=O)N[C@H]3CC[C@H](NCC4CCOC4)CC3)c2C(C)C)cn2ncnc12` (stereo partly drawn) [Example 105], the IC50 at human TLR9 is 2180 nM; against human TLR8, 43.2 nM; against human TLR7, 1.38 nM.

In the case of `COc1cc(-c2[nH]nc(-c3cnc(C4CCNCC4)cn3)c2C(C)C)cn2ncnc12` [Example 345], the IC50 was over 50000 nM on human TLR9, 3.12 nM on human TLR8 and 23.4 nM against human TLR7.

Consider `Cc1cc(-c2[nH]nc(C(=O)NCC3CN(C)CCO3)c2C(C)C)cn2ncnc12` (stereo not drawn) [Example 139], for which the IC50 is 17500 nM against human TLR9, 26.3 nM at human TLR8 and 4.96 nM on human TLR7.

`Cc1cc(-c2[nH]nc(-c3ccc(C4CCN(C(C)C)CC4)nc3)c2C(C)C)cn2ncnc12` [Example 361]: the values for the IC50 at human TLR9, against human TLR8 and against human TLR7 were 45600 nM, over 3130 nM and 719 nM, respectively.

On to `Cc1cc(-c2[nH]nc(C(=O)NC3CCN(CC4CC4)CC3)c2C(C)C)cn2ncnc12` [Example 73], for which the IC50 amounted to 4280 nM against human TLR9, 12.7 nM on human TLR8 and 0.96 nM against human TLR7.

Consider `Cc1cc(-c2[nH]nc(-c3ncc4c(n3)CNC4)c2C(C)C)cn2ncnc12` [Example 216], for which the IC50 is 6520 nM against human TLR9, 1.02 nM at human TLR8 and 0.72 nM against human TLR7.

For `Cc1cc(-c2[nH]nc(-c3ccc(N4CC(N(C)C)C4)cc3)c2C(C)C)cn2ncnc12` [Example 405, 1-(4-(4-isopropyl-5-(8-methyl-[1,2,4]triazolo[1,5-a]pyridin-6-yl)-1H-pyrazol-3-yl)phenyl)-N,N-dimethylazetidin-3-amine], the IC50 against human TLR9 was 37700 nM; against human TLR8, 215 nM; against human TLR7 it was 77.5 nM.
